Assay results taken from the supplement of paper PMC5908809.

Experiments:
[1] = test system: normal primary NK cells, pool 3 (3 donors) (IL-2 2.5 ng/mL); test: drug sensitivity score (DSS) (DSS units); higher = more sensitive; extreme values may be limits of the assay; conditions: 72 h
SNK-6 (IL-2 2.5 ng/mL) [2] = test: as above; conditions: 72 h
[3] = test system: normal primary NK cells, pool 2 (3 donors) (IL-2 2.5 ng/mL); test: as above; conditions: 72 h
NK-92 (IL-2 2.5 ng/mL) [4] = test: as above; conditions: 72 h
DERL-7 (IL-2 2.5 ng/mL) [5] = test: as above; conditions: 72 h
IMC-1 (IL-2 20 ng/mL) [6] = test: as above; conditions: 72 h
NK-YS (IL-2 2.5 ng/mL) [7] = test: as above; conditions: 72 h
NKL (IL-2 2.5 ng/mL) [8] = test: as above; conditions: 72 h
[9] = test system: normal primary NK cells, pool 1 (3 donors), resting (IL-2 0 ng/mL); test: as above; conditions: 72 h
YT (IL-2 2.5 ng/mL) [10] = test: as above; conditions: 72 h
[11] = test system: normal primary NK cells, pool 1 (3 donors) (IL-2 2.5 ng/mL); test: as above; conditions: 72 h
KAI3 (IL-2 2.5 ng/mL) [12] = test: as above; conditions: 72 h
KHYG-1 (IL-2 2.5 ng/mL) [13] = test: as above; conditions: 72 h
[14] = test system: normal NK cells expanded with K562-aAPC; test: percent inhibition of viability; higher = more inhibition; conditions: 72 h, IL-2 2.5 ng/mL
Protocol: (§1)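 Drug sensitivity and resistance testing on K562-aAPC-expanded normal NK cells: 5 concentrations (10-fold steps over a 10,000-fold range), 72 h at 37 °C, viability by CellTiter-Glo normalised to DMSO and benzethonium chloride controls; DSS from the fitted curve.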

[15] = test system: normal NK cells expanded with K562-aAPC; test: drug sensitivity score (DSS) (DSS units); higher = more sensitive; extreme values may be limits of the assay; conditions: 72 h; IL-2 2.5 ng/mL
Protocol: as §1

[16] = test system: normal primary NK cells, pool 3 (3 donors) (IL-2 2.5 ng/mL); test: percent inhibition of viability; higher = more inhibition; conditions: 72 h
SNK-6 (IL-2 2.5 ng/mL) [17] = test: as above; conditions: 72 h
[18] = test system: normal primary NK cells, pool 2 (3 donors) (IL-2 2.5 ng/mL); test: as above; conditions: 72 h
NK-92 (IL-2 2.5 ng/mL) [19] = test: as above; conditions: 72 h
DERL-7 (IL-2 2.5 ng/mL) [20] = test: as above; conditions: 72 h
IMC-1 (IL-2 20 ng/mL) [21] = test: as above; conditions: 72 h
NK-YS (IL-2 2.5 ng/mL) [22] = test: as above; conditions: 72 h
NKL (IL-2 2.5 ng/mL) [23] = test: as above; conditions: 72 h
[24] = test system: normal primary NK cells, pool 1 (3 donors), resting (IL-2 0 ng/mL); test: as above; conditions: 72 h
YT (IL-2 2.5 ng/mL) [25] = test: as above; conditions: 72 h
[26] = test system: normal primary NK cells, pool 1 (3 donors) (IL-2 2.5 ng/mL); test: as above; conditions: 72 h
KAI3 (IL-2 2.5 ng/mL) [27] = test: as above; conditions: 72 h
KHYG-1 (IL-2 2.5 ng/mL) [28] = test: as above; conditions: 72 h

CC(C)C[C@H](NC(=O)[C@@H](COC(C)(C)C)NC(=O)[C@H](Cc1ccc(O)cc1)NC(=O)[C@H](CO)NC(=O)[C@H](Cc1c[nH]c2ccccc12)NC(=O)[C@H](Cc1cnc[nH]1)NC(=O)[C@@H]1CCC(=O)N1)C(=O)N[C@@H](CCCNC(=N)N)C(=O)N1CCC[C@H]1C(=O)NNC(N)=O [Goserelin] (max concentration tested 10000 nM)
Conditions	drug sensitivity score
DERL-7 (IL-2 2.5 ng/mL) [5]	0
IMC-1 (IL-2 20 ng/mL) [6]	0.01
KAI3 (IL-2 2.5 ng/mL) [12]	0.84
KHYG-1 (IL-2 2.5 ng/mL) [13]	0
NK-92 (IL-2 2.5 ng/mL) [4]	0.34
NK-YS (IL-2 2.5 ng/mL) [7]	0
NKL (IL-2 2.5 ng/mL) [8]	0.26
SNK-6 (IL-2 2.5 ng/mL) [2]	0
YT (IL-2 2.5 ng/mL) [10]	0.49
[1]	0
[3]	0.22
[9]	5.4
[11]	0
[15]	0.04

percent inhibition of viability [%]
Conditions	1 nM	10 nM	100 nM	1000 nM	10000 nM
DERL-7 (IL-2 2.5 ng/mL) [20]	0.68	-4.54	-4.5	-0.44	-4.02
IMC-1 (IL-2 20 ng/mL) [21]	-8.43	-3.76	-4.51	-0.15	11.2
KAI3 (IL-2 2.5 ng/mL) [27]	-6.09	-9.54	-7.05	1.42	21.1
KHYG-1 (IL-2 2.5 ng/mL) [28]	-5.2	-3.78	-7.91	-4.87	6.57
NK-92 (IL-2 2.5 ng/mL) [19]	-9.16	-10.9	-7.22	-12.8	20.7
NK-YS (IL-2 2.5 ng/mL) [22]	-9.13	-9.66	-6.69	-6.01	6.61
NKL (IL-2 2.5 ng/mL) [23]	-13.2	-11.5	-12.2	0.66	14.8
SNK-6 (IL-2 2.5 ng/mL) [17]	-19.4	-9.63	-24.4	-13.4	-9.52
YT (IL-2 2.5 ng/mL) [25]	-6.11	-8.09	-5.17	-3.36	20.9
[14]	-6.58	-6.46	-10.9	-5.02	13.2
[16]	-3.77	-5.54	7.78	0.8	-2.53
[18]	-6.03	-6.27	-2.35	5.13	11.8
[24]	-2.06	1.54	20.9	19.8	15.1
[26]	2.55	-1.49	10.9	10.5	-0.05

Cc1c(Cn2c(C)nc3c(C(=O)O)cc(N4CCOCC4)cc32)cccc1C(F)(F)F (max concentration tested 10000 nM)
Conditions	drug sensitivity score
DERL-7 (IL-2 2.5 ng/mL) [5]	0.85
IMC-1 (IL-2 20 ng/mL) [6]	0
KAI3 (IL-2 2.5 ng/mL) [12]	3.6
KHYG-1 (IL-2 2.5 ng/mL) [13]	3.2
NK-92 (IL-2 2.5 ng/mL) [4]	3.86
NK-YS (IL-2 2.5 ng/mL) [7]	0.34
NKL (IL-2 2.5 ng/mL) [8]	0.29
SNK-6 (IL-2 2.5 ng/mL) [2]	0.03
YT (IL-2 2.5 ng/mL) [10]	1.67
[1]	0.01
[3]	0.23
[9]	0
[11]	0
[15]	1.17

percent inhibition of viability [%]
Conditions	1 nM	10 nM	100 nM	1000 nM	10000 nM
DERL-7 (IL-2 2.5 ng/mL) [20]	3.53	-4.49	1.36	12.1	13.4
IMC-1 (IL-2 20 ng/mL) [21]	-6.71	-4.25	-1.73	-3.09	11.3
KAI3 (IL-2 2.5 ng/mL) [27]	8.08	9.48	9.01	12.5	37.9
KHYG-1 (IL-2 2.5 ng/mL) [28]	-2.27	6.11	14.1	8.86	38.2
NK-92 (IL-2 2.5 ng/mL) [19]	-7.97	-2.84	22	7.51	49
NK-YS (IL-2 2.5 ng/mL) [22]	-2.91	-0.33	7.31	5.6	15.8
NKL (IL-2 2.5 ng/mL) [23]	-15.7	-8.49	-1.03	1.51	14.1
SNK-6 (IL-2 2.5 ng/mL) [17]	-7.05	-21.9	3.71	-6.21	13.1
YT (IL-2 2.5 ng/mL) [25]	1	6.27	9.12	14.3	16.5
[14]	2.47	-0.33	2.82	11.7	17.4
[16]	-1.55	0.84	4.49	-0.45	11.4
[18]	-11.1	-13.9	-1.99	1.31	13.6
[24]	-5.25	4.41	3.22	-19.1	-11.9
[26]	-6.21	1.65	-5.56	-4.02	4.77
